The source of these data is ChEMBL document CHEMBL4346751, “Comparative analysis of stilbene and benzofuran neolignan derivatives as acetylcholinesterase inhibitors with neuroprotective and anti-inflammatory activities” (Bioorg Med Chem Lett, 2019).

In data set [1] the test system is PC-12. Description: Neuroprotective activity against TBHP-induced cellular damage in rat PC12 cells assessed as cell viability at 10 uM pretreated for 1 hr followed by TBHP addition and measured after 3 hrs by CCK8 assay (reference value: 27.3%). In kind it is functional. Conditions: for viability at 10 µM: read-out: Activity. (In general: Tetrazolium assays rely on reduction of a dye to a coloured formazan, in cell work by metabolically active cells.)

Data set [2] concerns RAW264.7. The data set is described as follows: Antiinflammatory activity in mouse RAW264.7 cells assessed as inhibition of LPS/IFNgamma-induced NO production by measuring NO level preincubated for 2 hrs and followed by LPS/IFNgamma addition and measured after 24 hrs by Griess assay. It is filed as functional, cell-based. In general terms: Nitrite, measured by Griess reagent, commonly stands in for NO production.

Data set [3] addresses Acetylcholinesterase (Electrophorus electricus) (UniProt O42275). The data set is described as follows: Inhibition of electric eel AChE at 12.5 uM using acetylthiocholine iodide as substrate pretreated for 15 mins followed by substrate addition and measured after 60 mins by Ellman's method relative to control. A general note: DTNB colorimetry detects thiols as they appear.

Data set [4] deals with Acetylcholinesterase (Electrophorus electricus, UniProt O42275). Description: (§1) Inhibition of electric eel AChE using acetylthiocholine iodide as substrate pretreated for 15 mins followed by substrate addition and measured after 60 mins by Ellman's method.
Sequence of Acetylcholinesterase (O42275 whole entry): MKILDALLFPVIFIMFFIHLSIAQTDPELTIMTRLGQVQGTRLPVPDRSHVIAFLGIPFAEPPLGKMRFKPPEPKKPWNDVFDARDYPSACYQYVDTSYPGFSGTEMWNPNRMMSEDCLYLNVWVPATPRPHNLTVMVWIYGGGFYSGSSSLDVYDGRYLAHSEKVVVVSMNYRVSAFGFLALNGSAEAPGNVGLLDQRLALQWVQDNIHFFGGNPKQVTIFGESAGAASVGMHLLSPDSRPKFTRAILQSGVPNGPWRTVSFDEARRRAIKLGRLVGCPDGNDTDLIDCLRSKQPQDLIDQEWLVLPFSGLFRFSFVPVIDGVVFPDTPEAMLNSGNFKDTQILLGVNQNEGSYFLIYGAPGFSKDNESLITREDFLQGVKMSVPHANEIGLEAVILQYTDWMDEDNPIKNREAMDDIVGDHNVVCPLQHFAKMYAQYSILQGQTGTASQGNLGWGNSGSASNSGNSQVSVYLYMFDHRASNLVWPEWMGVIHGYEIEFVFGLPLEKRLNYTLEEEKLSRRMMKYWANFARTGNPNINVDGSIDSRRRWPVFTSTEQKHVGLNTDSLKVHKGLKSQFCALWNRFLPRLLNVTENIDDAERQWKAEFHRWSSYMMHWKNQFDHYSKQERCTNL
Data set [5] addresses Acetylcholinesterase (Electrophorus electricus) (UniProt O42275). The data set is described as §1.
The subject of data set [6] is PC-12. The data set is described as follows: Toxicity in TBHP treated rat PC12 cells assessed as reduction cell viability at 10 uM pretreated for 1 hr followed by TBHP addition and measured after 3 hrs by CCK8 assay. Conditions: pc-12, 3 h. It is filed as cell-based.

Molecules are shown by their SMILES. Calls of active or inactive are those of the source. The calls are words filed in the database; no cut-off is given here.

Sequence of Acetylcholinesterase (Electrophorus electricus) (O42275 24-633 limits assumed): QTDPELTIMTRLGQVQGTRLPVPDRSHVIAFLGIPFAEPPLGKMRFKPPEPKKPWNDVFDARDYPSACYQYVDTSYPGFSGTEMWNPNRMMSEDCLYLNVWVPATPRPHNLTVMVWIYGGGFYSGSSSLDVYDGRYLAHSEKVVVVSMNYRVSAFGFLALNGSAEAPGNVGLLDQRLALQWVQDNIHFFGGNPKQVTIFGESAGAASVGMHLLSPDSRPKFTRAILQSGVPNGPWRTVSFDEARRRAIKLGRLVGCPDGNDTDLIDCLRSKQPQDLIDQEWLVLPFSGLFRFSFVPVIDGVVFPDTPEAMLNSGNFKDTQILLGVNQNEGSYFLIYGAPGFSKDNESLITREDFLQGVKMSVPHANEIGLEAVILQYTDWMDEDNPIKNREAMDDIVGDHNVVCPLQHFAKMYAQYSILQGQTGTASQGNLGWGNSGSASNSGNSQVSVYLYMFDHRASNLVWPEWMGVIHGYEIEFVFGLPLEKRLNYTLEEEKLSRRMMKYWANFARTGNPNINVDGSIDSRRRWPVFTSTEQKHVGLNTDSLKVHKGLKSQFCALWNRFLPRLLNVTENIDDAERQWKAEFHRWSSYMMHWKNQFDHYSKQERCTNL

Regarding `Oc1ccc(/C=C/c2cc(O)cc(O)c2)cc1` [RESVERATROL], in data set [1], the viability at 10 µM stood at 57.5%. Besides, in data set [2], the IC50 turned out to be 44.1 µM and the inhibition entry is “Dose-dependent effect”.
Regarding `COc1cc(/C=C/c2ccc3c(c2)[C@H](c2cc(OC)cc(OC)c2)[C@@H](c2ccc(O)cc2)O3)cc(OC)c1`, the inhibition in data set [3] was greater than 50%; in data set [2], “Dose-dependent effect”. The IC50 in data set [4] is 11.7 µM; in data set [2], 24 µM. Besides, in data set [1], the viability at 10 µM came out at 75.5%.
On to `COC(=O)CCc1cc(OC)c2c(c1)[C@H](C(=O)OC)[C@@H](c1ccc(O)c(OC)c1)O2`, for which the inhibition result in data set [5] is “inactive”. In addition, in data set [2], the IC50 came out at 231 µM and the inhibition result is “Dose-dependent effect”.
As for `Oc1ccc([C@H]2Oc3ccc(/C=C/c4cc(O)cc(O)c4)cc3[C@@H]2c2cc(O)cc(O)c2)cc1`, the figures for the inhibition in data set [3] and in data set [2] were greater than 50% and “Dose-dependent effect”, respectively. Besides, the results for the IC50 in data set [4] and in data set [2] were 4.3 µM and 80.2 µM, respectively. The viability at 10 µM in data set [1] was determined as 60.2%.
With `COc1cc(/C=C/C(=O)OCCCc2cc(OC)c3c(c2)C(COC(=O)/C=C/c2ccc(O)c(OC)c2)C(c2ccc(O)c(OC)c2)O3)ccc1O` (stereo unspecified), the inhibition result in data set [5] and in data set [2] was “Dose-dependent effect” throughout. The results for the IC50 in data set [4] and in data set [2] were 29.8 µM and 9.4 µM, respectively. For the same compound, the viability at 10 µM in data set [1] came out at 72.7%.
`O=c1c(O)c(-c2ccc(O)c(O)c2)oc2cc(O)cc(O)c12` [QUERCETIN]: the viability at 10 µM in data set [1] amounted to 65.1%.
For the compound `COC(=O)/C=C/c1cc(OC)c2c(c1)[C@H](C(=O)OC)[C@@H](c1ccc(O)c(OC)c1)O2` (racemic), the inhibition result in data set [5] was “inactive”. Besides, in data set [2], the IC50 was determined as 51.4 µM and the inhibition entry was “Dose-dependent effect”.
Consider `COc1cc(/C=C/c2ccc(O)cc2)cc(OC)c1` [PTEROSTILBENE], for which, in data set [2], the IC50 was found to be 30 µM and the inhibition entry is “Dose-dependent effect”.
Take `COc1cc([C@H]2Oc3c(OC)cc(CCCO)cc3[C@@H]2CO)ccc1O` [DIHYDRODEHYDRODICONIFERY ALCOHOL]: the inhibition result in data set [5] is “inactive”. Further, in data set [2], the IC50 came to 60.4 µM and the inhibition entry is “Dose-dependent effect”.
For the compound `COc1cc([C@@H]2Oc3c(OC)cc(/C=C/C(=O)NCCc4ccc(O)cc4)cc3[C@H]2C(=O)NCCc2ccc(O)cc2)ccc1O` [GROSSAMIDE], the inhibition result in data set [5] and in data set [2] was “Dose-dependent effect” in each case. Further, the IC50 stood at 39.3 µM in data set [4] and 24.7 µM in data set [2]. Besides, the result in data set [1] was inactive. The Activity entry in data set [6] was “Toxic”.

A word on the IC50: it is the concentration needed to halve the response being measured. In general, inhibition refers to the relative decrease from the control value, in per cent.
